Results on 8 compounds are retold here after ChEMBL document CHEMBL1201862, “PubChem BioAssay data set” (2004).

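These data come from cells grown in 96-well plates and exposed to compound for 48 hours at five concentrations. GI50 marks 50% less growth.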 Activity calls are given as the source filed them. Cut-off read from the data, not from the text of the source: active = GI50 up to about 1.1 µM and inactive = higher. A value given as a limit tells only on which side of the number the result lay.

What all share (assay): inhibition of tumour cell growth, NCI panel, 48 h
Test [1] has as its system DU-145.
The test system of test [2] is SR.
In test [3] the test system is RPMI-8226.
The subject of test [4] is M14.
Test [5] deals with SN12C.
For test [6], the system named is PC-3.
The subject of test [7] is HOP-92.
Test [8] relates to OVCAR-5.
The subject of test [9] is BT-549.
The subject of test [10] is HCT-116.
Test [11] has as its system RXF 393.
Test [12] deals with COLO 205.
Test [13] deals with SF-539.
The subject of test [14] is NCI-H522.
The subject of test [15] is TK-10.
Test [16] has as its system U-251.
The test system of test [17] is CCRF-CEM.
For test [18], the system named is UACC-257.
Test [19] concerns SK-MEL-28.

`Cc1ccc(C(CC(=O)C(C)(C)CN2CCCCC2)SCCS(=O)(=O)O)cc1` (centres undefined): the GI50 in test [1] was 41.9 µM (inactive); in test [2], 12.2 µM (inactive); in test [3], 22.1 µM (inactive); in test [4], 23.8 µM (inactive); in [5] it was 25.3 µM (inactive); in test [6] it was 34.4 µM (inactive). Moreover, the GI50 in [7] is 17.1 µM (inactive); in test [8], 20.9 µM (inactive); in test [9] it was 74.6 µM (inactive); in [10], 22.3 µM (inactive); in test [11], 11.8 µM (inactive); in test [12], 18.8 µM (inactive). In addition, the GI50 in [13] is 23.2 µM (inactive); in test [14], 25.8 µM (inactive); in test [15] it was 25.9 µM (inactive); in [16] it was 29.4 µM (inactive); in test [17] it was 19.3 µM (inactive).

In the case of `CCOC(=O)/C=C/[C@H](O[Si](CC)(CC)CC)C(C)(C)C`, the GI50 in test [1] is > 100 µM (inactive); in test [2] it was 22.7 µM (inactive); in test [3], 20.6 µM (inactive); in [5], 39 µM (inactive); in test [18], 31 µM (inactive); in [6] it was 78.3 µM (inactive). In addition, the GI50 in test [7] is > 100 µM (inactive); in test [8], 89.9 µM (inactive); in test [9] it was > 100 µM (inactive); in [10], 51.2 µM (inactive); in test [11] it was 47.1 µM (inactive); in test [12], 80.5 µM (inactive). Moreover, the GI50 is > 100 µM (inactive) in test [13]; 29.1 µM (inactive) in [14]; > 100 µM (inactive) in test [15]; 27.4 µM (inactive) in test [16]; 22.4 µM (inactive) in test [17].

On to `C[C@]12CCC3c4ccc(O)cc4CC[C@H]3C1CC(=O)N(N)C2=O` (some centres undefined), for which the GI50 in test [1], in test [2], in [19], in test [4], in test [5] and in [18] was > 100 µM (inactive) each time. The GI50 in [6], in [7], in test [8], in test [9], in test [10] and in [11] was > 100 µM (inactive) each time. Further, the GI50 in test [12], in test [13], in [14], in test [15], in [16] and in test [17] was > 100 µM (inactive) each time.

For the compound `COc1cc(NC(C)=O)ccc1C(=O)NN1C(=O)/C(=C/c2ccco2)N=C1c1ccccc1`, the GI50 was > 50 µM (inactive) in test [1]; 22.5 µM (inactive) in test [2]; 28.6 µM (inactive) in test [19]; 13.5 µM (inactive) in [3]; 38.2 µM (inactive) in [4]; > 50 µM (inactive) in test [5]. The GI50 was > 50 µM (inactive) in test [6]; > 50 µM (inactive) in test [7]; > 50 µM (inactive) in test [8]; > 50 µM (inactive) in test [9]; 30.8 µM (inactive) in [10]; > 50 µM (inactive) in [11]. Moreover, the GI50 in test [12] is > 50 µM (inactive); in [13] it was 33.4 µM (inactive); in [14] it was 24.5 µM (inactive); in test [17], 12.5 µM (inactive).

Consider `CC(=O)OC[C@@H](OC(C)=O)[C@@H](OC(C)=O)[C@H]1OC[C@@H]2C[C@H]([C@H]1OC(C)=O)N(Cc1ccccc1)O2`, for which the GI50 in test [1], in [2], in [19], in test [3], in test [4] and in test [5] was > 100 µM (inactive) throughout. Moreover, the GI50 in test [18], in test [6], in test [7], in test [8], in test [9] and in [10] was > 100 µM (inactive) each time. In addition, the GI50 in test [11], in [12], in test [13], in [15], in [16] and in test [17] was > 100 µM (inactive) throughout.

As to `O=[N+]([O-])c1ccc(NN/N=N/c2ccc(-c3nc4ccccc4s3)cc2)c([N+](=O)[O-])c1`, the GI50 was 30.7 µM (inactive) in [1]; 26.8 µM (inactive) in test [2]; 33.7 µM (inactive) in [19]; 18.2 µM (inactive) in test [4]; 22.6 µM (inactive) in test [5]; 18.9 µM (inactive) in [18]. The GI50 was 24.4 µM (inactive) in test [6]; 21 µM (inactive) in test [7]; 23.8 µM (inactive) in test [8]; 23.8 µM (inactive) in [9]; 17.5 µM (inactive) in [10]; 18.7 µM (inactive) in test [11]. The GI50 in [12] was 16.4 µM (inactive); in test [13], 18.8 µM (inactive); in [14], 25 µM (inactive); in test [15], 36.9 µM (inactive); in test [16], 23.4 µM (inactive); in [17] it was 28.6 µM (inactive).

Regarding `COc1cc2c(cc1[N+](=O)[O-])C(=O)C(Br)(Br)CCC2`, the GI50 in test [1] is 7.18 µM (inactive); in [2], 0.743 µM (active); in test [3], 1.8 µM (inactive); in test [4] it was 2.12 µM (inactive); in test [5], 2.21 µM (inactive); in test [18], 13.6 µM (inactive). Moreover, the GI50 in test [6] is 5 µM (inactive); in [7] it was 4.46 µM (inactive); in test [8], 1.91 µM (inactive); in test [9], 2.12 µM (inactive); in [10], 0.697 µM (active); in [11] it was 1.93 µM (inactive). The GI50 in [12] is 1.91 µM (inactive); in test [13], 1.9 µM (inactive); in test [14] it was 0.771 µM (active); in test [15], 2.54 µM (inactive); in test [16], 2.23 µM (inactive); in [17], 0.101 µM (active).

Turning to `N/C(=N\c1ccc(Cl)cc1)c1ccccc1N`, the GI50 in test [1], in test [2], in [19], in [3], in [4] and in test [18] was > 100 µM (inactive) each time. For the same compound, the GI50 was > 100 µM (inactive) in test [6]; 3.82 µM (inactive) in test [7]; > 100 µM (inactive) in test [8]; > 100 µM (inactive) in test [9]; > 100 µM (inactive) in test [10]; > 100 µM (inactive) in test [11]. For the same compound, the GI50 in test [12], in test [14], in test [15], in [16] and in test [17] was > 100 µM (inactive) in each case.
